Experiments:
[1] = Reduction in apatite solubility (ALR), lactic acid consumption at pH 5; conditions: 0.5 g hydroxyapatite in 300 ml water, 37° C., pH 5, 2 hours
Procedure: In order to determine the reduction in apatite stability, a blind test was first conducted. For this purpose, a reaction vessel with 300 ml of desalinated water was temperature-controlled to 37° C., and 0.5 g of hydroxyapatite powder (spec. surface area 60 m^2/g, Merck) was suspended therein. The pH value of the suspension was kept at a constant value of 5 by means of an automatic burette used to add lactic acid. The amount of 0.1 molar lactic acid consumed in order to stabilize the pH was registered with a recorder.
The reduction in apatite solubility (ALR in %) caused by the active ingredient was calculated as follows: ALR (%)=(Lu−Lb)*100/Lu (%)

[2] = Inhibition of crystal growth (KWI) of hydroxyapatite, KOH consumption at pH 7.4; conditions: 100 mg hydroxyapatite, pH 7.4, 2 hours
Procedure: In order to determine inhibition of crystal growth (KWI in %) by hydroxyapatite, a blind test was also first conducted. For this purpose, a reaction vessel with 400 ml of a 0.0008 molar solution of KH2PO4 and 45 ml of a 0.012 molar solution of CaCl2 was prepared. This solution was adjusted to a pH of 7.4 by titration with a 0.05 molar solution of KOH. After a stable pH value had been maintained for at least 30 minutes, 100 mg of hydroxyapatite powder (spec. surface area 60 m^2/g, Merck) was added. The pH value of the suspension was kept at a constant value of 7.4 by means of an automatic burette which can be used to add 0.05 molar KOH solution. The amount of 0.05 molar KOH solution consumed in order to stabilize the pH was registered with a recorder. The consumption of KOH solution (Ku) registered after 2 hours was equivalent to the formation of hydroxyapatite (growth of crystals in the suspension).
Inhibition of crystal growth by the active ingredient was calculated as follows: KWI (%)=(Ku−Kb)*100/Ku (%)

[3] = 30 mg active ingredient mixture
[4] = 150 mg active ingredient mixture

SMILES	Apatite solubility [%] [1, 3] [%]	Apatite solubility [%] [1, 4] [%]	Crystal growth inhibition [%] ([2]; 5 mg active ingredient)	Crystal growth inhibition [%] ([2]; 6 mg active ingredient)
Cc1ccc(C(C)C)c(OCC(=O)N(Cc2cccs2)c2cc[nH]n2)c1 [Example V11, 2-(2-isopropyl-5-methylphenoxy)-N-(1H-pyrazol-3-yl)-N-(thiophen-2-yl)-methylacetamide]	5	14	11	16
CC1CCC(C(C)C)C2(C1)OCC(CO)O2 (centres unmarked) [Example V10, Menthone glyceryl acetal]	–	13	9	17
COC(=O)C(C)O (centres unmarked) [Example V9, Methyl lactate]	5	12	10	14

Source: patent publication US10492511B2, “Preparations” (Symrise AG, priority 2012, dated 2019)
